Test results as given in the NIST ThermoML archive (doi:10.1021/je300482b).
Numbers after ± are expanded uncertainties.

Experiment: xn = mol fraction of the nth substance listed
Conditions: Liquid, Vibrating tube method

CCCCCCCCCCCCCCCC [hexadecane] + CCCCCCCCCC
mass density [kg/m3]
Conditions | 1000 kPa | 2000 kPa | 3000 kPa | 4000 kPa | 5000 kPa | 6000 kPa | 7000 kPa | 8000 kPa | 9000 kPa | 10000 kPa
295 K, x2 = 0.25 | 760.6 ± 0.4 | 761.3 ± 0.4 | 762 ± 0.4 | 762.6 ± 0.4 | 763.3 ± 0.4 | 764 ± 0.4 | 764.6 ± 0.4 | 765.3 ± 0.4 | 765.9 ± 0.4 | 766.6 ± 0.4
295 K, x2 = 0.75 | 739.6 ± 0.4 | 740.4 ± 0.4 | 741.1 ± 0.4 | 741.8 ± 0.4 | 742.5 ± 0.4 | 743.3 ± 0.4 | 744 ± 0.4 | 744.7 ± 0.4 | 745.4 ± 0.4 | 746.2 ± 0.4
295.3 K, x2 = 0.5 | 751 ± 0.4 | 751.7 ± 0.4 | 752.4 ± 0.4 | 753.1 ± 0.4 | 753.8 ± 0.4 | 754.5 ± 0.4 | 755.1 ± 0.4 | 755.8 ± 0.4 | 756.5 ± 0.4 | 757.2 ± 0.4
